pEC50: −log10 of the molar value.
Columns and labels:
KBM7 cells (wild-type) = test: KBM7 CTG EC50 assay (UBE2M wild-type); assay type: cell-based, human; conditions: for pEC50: Homo sapiens, KBM-7, 72 h incubation, CellTiter-Glo, read-out: KBM7 CTG EC50 (UBE2M wild-type) Activity Class; for Ratio UBE2M WT to KO: ratio of anti-proliferative activity in KBM7 wild-type versus UBE2M knock-out cells (fold)
Excerpt: (§1) This is a cell viability assay to measure the desired therapeutic effect, i.e. killing of cancer cells. The UBE2M mutant cell line has impaired activity of the Cullin-RING ligase system due to a hypomorphic mutation in UBE2M, which is required for activation of these E3 ligases. By comparison with WT cells, it is possible to estimate the contribution of Cyclin K degradation (which is reduced in UBE2M mut cells) compared to kinase inhibition of CDK12 (which is unaffected in UBE2M mut cells). Since the UBE2M mutation only reduces CRL function without fully abrogating it, this assay may slightly underestimate the effect of degradation because, at high compound concentrations, degradation may still be observed.
(§2) KBM7 cells (wild-type or harboring α hypomorphic UBE2M mutation (Mayor-Ruiz et al., 2019)) were seeded in a white opaque 384-well plate at a density of 1000 cells per well in duplicate, in full medium (IMDM+10% FBS+1% penicillin-streptomycin). Cells were treated with compounds in a 10-point titration with a dilution factor of 1:4 (range: 0 to 20 μM). After 72 h of incubation, the cell viability was determined using the CellTiter-Glo® 2.0 reactant (Promega), pre-diluted 1:4 in mQ water. The luminescence signal was measured using the multimode plate reader EnVision 2105 (Perkin Elmer).

[1] = target: T1, DDB1-CDK12/Cyclin K ternary complex (Homo sapiens, UniProt Q16531+Q9NYV4); test: NanoBRET fold-change assay (HaloTag_CDK12 / NanoLuc_DDB1 in HEK293T); assay type: cell-based; conditions: 10 μM compound, 10 minutes
T1 construct: expressed in transfected cells; host or cells: HEK293T wildtype cells, transient PEI transfection
T1 sequence (Q9NYV4 whole entry): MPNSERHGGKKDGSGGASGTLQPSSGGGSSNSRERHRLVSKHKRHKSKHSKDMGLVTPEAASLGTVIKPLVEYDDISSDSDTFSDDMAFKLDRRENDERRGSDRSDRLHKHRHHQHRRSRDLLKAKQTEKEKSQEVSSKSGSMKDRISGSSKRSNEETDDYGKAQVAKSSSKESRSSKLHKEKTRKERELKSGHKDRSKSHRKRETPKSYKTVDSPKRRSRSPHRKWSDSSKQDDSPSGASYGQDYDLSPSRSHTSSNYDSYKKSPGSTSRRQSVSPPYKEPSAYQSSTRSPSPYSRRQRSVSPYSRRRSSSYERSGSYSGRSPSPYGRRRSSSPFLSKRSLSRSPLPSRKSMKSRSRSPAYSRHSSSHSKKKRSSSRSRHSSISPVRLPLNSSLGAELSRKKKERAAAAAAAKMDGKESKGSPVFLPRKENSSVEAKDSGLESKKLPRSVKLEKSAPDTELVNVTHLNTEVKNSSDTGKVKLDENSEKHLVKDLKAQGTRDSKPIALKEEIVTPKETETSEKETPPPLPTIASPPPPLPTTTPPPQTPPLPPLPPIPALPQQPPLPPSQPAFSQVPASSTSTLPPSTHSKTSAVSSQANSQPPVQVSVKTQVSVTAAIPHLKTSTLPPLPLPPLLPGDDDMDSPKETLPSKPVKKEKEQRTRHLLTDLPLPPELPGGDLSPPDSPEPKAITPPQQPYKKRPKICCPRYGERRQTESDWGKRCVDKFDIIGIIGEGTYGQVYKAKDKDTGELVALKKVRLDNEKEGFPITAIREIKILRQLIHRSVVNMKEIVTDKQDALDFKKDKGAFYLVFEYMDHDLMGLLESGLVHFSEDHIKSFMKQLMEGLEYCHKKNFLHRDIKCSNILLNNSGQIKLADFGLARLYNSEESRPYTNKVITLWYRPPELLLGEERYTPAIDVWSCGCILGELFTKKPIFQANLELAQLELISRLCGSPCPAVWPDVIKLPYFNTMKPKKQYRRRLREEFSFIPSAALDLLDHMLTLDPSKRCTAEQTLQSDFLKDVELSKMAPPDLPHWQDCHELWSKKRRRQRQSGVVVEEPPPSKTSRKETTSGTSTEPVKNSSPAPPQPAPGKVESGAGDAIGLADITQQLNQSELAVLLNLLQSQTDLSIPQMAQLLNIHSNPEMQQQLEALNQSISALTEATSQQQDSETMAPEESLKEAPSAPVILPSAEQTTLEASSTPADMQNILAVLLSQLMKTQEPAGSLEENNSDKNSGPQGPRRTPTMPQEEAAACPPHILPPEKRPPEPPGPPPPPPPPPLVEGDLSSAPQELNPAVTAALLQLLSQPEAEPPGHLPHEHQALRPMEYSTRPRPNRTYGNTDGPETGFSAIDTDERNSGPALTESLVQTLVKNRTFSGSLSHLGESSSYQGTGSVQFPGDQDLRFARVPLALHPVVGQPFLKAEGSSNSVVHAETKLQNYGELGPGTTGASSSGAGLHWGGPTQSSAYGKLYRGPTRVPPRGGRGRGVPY
T1 sequence (Q16531 whole entry): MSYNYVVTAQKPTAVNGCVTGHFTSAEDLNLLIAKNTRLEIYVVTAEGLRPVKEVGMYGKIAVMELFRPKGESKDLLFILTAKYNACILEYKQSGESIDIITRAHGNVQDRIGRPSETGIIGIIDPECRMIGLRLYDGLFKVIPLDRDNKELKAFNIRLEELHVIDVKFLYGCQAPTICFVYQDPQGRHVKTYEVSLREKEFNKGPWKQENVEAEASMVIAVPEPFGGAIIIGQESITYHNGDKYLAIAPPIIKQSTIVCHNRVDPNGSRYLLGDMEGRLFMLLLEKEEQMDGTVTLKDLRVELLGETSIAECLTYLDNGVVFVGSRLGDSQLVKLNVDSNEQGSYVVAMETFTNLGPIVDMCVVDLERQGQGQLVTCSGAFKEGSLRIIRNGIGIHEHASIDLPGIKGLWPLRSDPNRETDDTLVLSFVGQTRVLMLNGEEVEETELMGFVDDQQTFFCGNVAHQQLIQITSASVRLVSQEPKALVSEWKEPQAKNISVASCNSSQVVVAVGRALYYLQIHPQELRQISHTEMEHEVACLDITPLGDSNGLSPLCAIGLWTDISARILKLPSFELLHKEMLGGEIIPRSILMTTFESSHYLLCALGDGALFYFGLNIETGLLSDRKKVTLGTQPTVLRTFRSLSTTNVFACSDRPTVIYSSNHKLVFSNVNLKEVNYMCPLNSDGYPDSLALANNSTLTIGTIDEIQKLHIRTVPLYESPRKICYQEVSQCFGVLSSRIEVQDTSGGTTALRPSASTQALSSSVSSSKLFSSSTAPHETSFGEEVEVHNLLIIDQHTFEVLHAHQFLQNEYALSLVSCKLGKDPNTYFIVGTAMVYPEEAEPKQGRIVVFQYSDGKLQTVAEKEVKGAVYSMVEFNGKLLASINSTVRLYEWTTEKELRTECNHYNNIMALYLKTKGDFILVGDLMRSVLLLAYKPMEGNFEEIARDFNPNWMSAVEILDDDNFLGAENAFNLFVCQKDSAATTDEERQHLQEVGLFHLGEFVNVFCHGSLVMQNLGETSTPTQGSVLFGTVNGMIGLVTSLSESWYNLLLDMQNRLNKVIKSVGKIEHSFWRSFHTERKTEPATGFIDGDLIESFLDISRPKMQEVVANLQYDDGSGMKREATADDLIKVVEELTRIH
T1 sequence (O75909 whole entry partner): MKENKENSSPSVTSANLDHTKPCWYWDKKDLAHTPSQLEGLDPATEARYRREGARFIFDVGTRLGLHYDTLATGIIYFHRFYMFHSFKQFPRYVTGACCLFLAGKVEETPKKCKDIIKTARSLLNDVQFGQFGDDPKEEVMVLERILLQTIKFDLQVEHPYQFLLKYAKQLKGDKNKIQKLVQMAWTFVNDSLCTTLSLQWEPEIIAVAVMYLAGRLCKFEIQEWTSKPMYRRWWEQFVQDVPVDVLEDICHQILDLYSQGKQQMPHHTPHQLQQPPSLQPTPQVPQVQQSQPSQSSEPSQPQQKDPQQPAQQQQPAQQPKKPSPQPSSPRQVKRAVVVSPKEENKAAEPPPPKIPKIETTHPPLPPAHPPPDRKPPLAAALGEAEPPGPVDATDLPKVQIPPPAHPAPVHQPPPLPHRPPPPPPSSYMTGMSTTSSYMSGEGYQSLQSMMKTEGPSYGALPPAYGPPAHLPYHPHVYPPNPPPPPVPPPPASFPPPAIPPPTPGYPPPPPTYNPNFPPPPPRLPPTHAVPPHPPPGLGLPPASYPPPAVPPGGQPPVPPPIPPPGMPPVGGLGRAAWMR
Description: This assay measures the interaction/recruitment of CDK12/Cyclin K to DDB1, mechanistically validating the molecular glue pharmacology.
HEK293T wildtype cells are seeded 800 k cells/well (DMEM+10% FBS+1% PS) in a 6-well plate and allowed to attach for ˜7 hours followed by a transient transfection of 1.5 μg HaloTag_CDK12 Plasmid [Table 1] and 0.15 μg NanoLuc_DDB1 plasmid [Table 1] per well using PEI. Cells are incubated at 37° C., 5% CO2, harvested after 24 hours and resuspended in assay media (Opti-MEM Reduced serum media, no phenol red, 4% FBS, 1% PS). Cells are adjusted to 2.3×10^5 cells/ml and treated with HaloTag 618 Ligand at 100 nM or DMSO. 8000 cells are seeded per well in triplicates per compound in a white-walled 384-well plate, one negative control treated with DMSO instead of HaloTag 618 Ligand is seeded in triplicates and the 384-well plate is incubated at 37° C., 5% CO2 overnight. Compound stock solutions are prepared in Opti-MEM−/− (Opti-MEM I Reduced serum media, no phenol red) at 8× and used to treat the cells at a final concentration of 1× at 10 μM. Cells and compounds are incubated for 10 minutes at room temperature followed by addition of NanoBRET Nano-Glo substrate following manufacturer's protocols. The plate is shaken for 30 sec followed by immediate measurement of donor emission (NanoBRET Blue at 460 nm) and acceptor emission (BRET Deep Red at 647 nm) for 0.5 s.

[2] = system: KBM7 cells harboring a hypomorphic UBE2M mutation; test: KBM7 CTG EC50 assay (UBE2M knock-out); assay type: cell-based; conditions: Homo sapiens, KBM-7; 72 h incubation, CellTiter-Glo; read-out: KBM7 CTG EC50 (UBE2M knock-out) Activity Class
Excerpt: as §1, §2

CCNK = test: NanoLuc-CCNK degradation assay (HEK293T_Nluc_CCNK-tagged cells); assay type: cell-based; conditions: 4 h incubation, HEK293T_Nluc_CCNK-tagged cells; for DC50: read-out: NanoLuc-CCNK degradation DC50 Activity Class
Description: The assay helps to elucidate the mechanistic explanation of the cell killing effect of the compounds of the present invention. Cyclin K is fused to a nanoluciferase, light emission is measured as a proxy of Cyclin K abundance. Potency of Cyclin K degradation and cytotoxicity of KBM7 correlate extremely well, further supporting Cyclin K degradation being the main driver of the cell killing, as opposed to inhibition of CDK12 catalytic activity.
HEK293T_Nluc_CCNK-tagged cells were engineered by integrating a nanoluciferase tag at the N-terminus of the endogenous locus of CCNK using CRISPR-Cas9 technology. Briefly, 5.5 million HEK293T cells were co-transfected by PEI with a 1:1 ratio of cutting vector (sgRNA: […]) and repair template (4 μg total plasmid) as previously described (Brand and Winter, 2019). The repair sequence comprises a cassette of puromycinR-P2A-HA-Nluc-(G4S)3 (P2A: self-cleaving peptide 2A, HA: HA-tag, (G4S)3: flexible linker), surrounded by 20-nucleotide microhomologies matching the genomic locus. After 3 days of incubation, the recombinant population was selected by puromycin treatment (2 μg/ml, 5-day treatment). A monoclonal population was obtained by limiting dilution and cassette integration validated by Sanger sequencing.
HEK293T_Nluc_CCNK-tagged cells were seeded in a white opaque 384-well plate at a density of 8000 cells per well in duplicate, in full medium (Opti-MEM I+4% FBS+1% PS). Cells were treated with compounds in a 10-point titration (range: 0 to 10 μM, 1:4 dilution). After 4 h of incubation, Nano-Glo substrate (Promega), pre-diluted in serum-free medium (Opti-MEM I), was added to the cells (1:500 final dilution). The luminescence signal was directly measured using the multimode plate reader EnVision 2105 (Perkin Elmer).

NanoBRET fold-change Activity Class [1] | DC50 (CCNK) | NanoLuc-CCNK degradation DC50 Activity Class (CCNK) | SMILES | pEC50 (KBM7 cells (wild-type)) | Ratio UBE2M WT to KO (KBM7 cells (wild-type)) | pEC50 [2]
C (2-3 fold increase) | > 10 µM | – | O=C(Nc1ncc(C(F)(F)F)s1)C1CC(=O)N(c2ccc(F)cc2)C1 (centres unmarked) [Example 3-26, 1-(4-fluorophenyl)-5-oxo-N-(5-(trifluoromethyl)thiazol-2-yl)pyrrolidine-3-carboxamide] | 5.00 to 6.00 | >5 | < 5.00
C (2-3 fold increase) | – | D (10 μM≤DC50<1.0 μM) | O=C(Cc1cc2ccccc2o1)Nc1ncc(C(F)(F)F)s1 [Example 3-41, 2-(benzofuran-2-yl)-N-(5-(trifluoromethyl)thiazol-2-yl)acetamide] | 5.00 to 6.00 | >2 | < 5.00
B (3-4 fold increase) | – | B (0.50 μM≤DC50<0.10 μM) | O=C(Nc1ncc(C(F)(F)F)s1)C1CC(=O)N(c2ccc3c(c2)CCC3)C1 (centres unmarked) [Example 3-24, 1-(2,3-dihydro-1H-inden-5-yl)-5-oxo-N-(5-(trifluoromethyl)thiazol-2-yl)pyrrolidine-3-carboxamide] | ≥ 6.60 | 23.8 | 5.00 to 6.00
B (3-4 fold increase) | > 10 µM | – | O=C(Nc1ncc(C(F)(F)F)s1)C1CC(=O)N(c2ccc(F)c(F)c2)C1 (centres unmarked) [Example 3-23, 1-(3,4-difluorophenyl)-5-oxo-N-(5-(trifluoromethyl)thiazol-2-yl)pyrrolidine-3-carboxamide] | ≥ 6.60 | >10 | < 5.00
A (greater than 4-fold increase) | – | B (0.50 μM≤DC50<0.10 μM) | CC(C)c1ccc(NC(=O)Cc2cn3cc(F)ccc3n2)nc1 [Example 3-61, 2-(6-fluoroimidazo[1,2-a]pyridin-2-yl)-N-(5-isopropylpyridin-2-yl)acetamide] | ≥ 6.60 | >20 | < 5.00
D (1-2 fold increase) | > 10 µM | – | Cc1c(CC(=O)Nc2ncc(C(F)(F)F)s2)sc2ccccc12 [Example 3-12, 2-(3-methylbenzo[b]thiophen-2-yl)-N-(5-(trifluoromethyl)thiazol-2-yl)acetamide] | < 5.00 | >10 | < 5.00
B (3-4 fold increase) | > 10 µM | – | O=C(Nc1ncc(C(F)(F)F)s1)C1CC(=O)N(c2ccc3c(c2)OCO3)C1 (centres unmarked) [Example 3-25, 1-(benzo[d][1,3]dioxol-5-yl)-5-oxo-N-(5-(trifluoromethyl)thiazol-2-yl)pyrrolidine-3-carboxamide] | 6.30 to 6.60 | >10 | < 5.00
B (3-4 fold increase) | – | D (10 μM≤DC50<1.0 μM) | O=C(Cc1c[nH]c2nccc(Cl)c12)Nc1ncc(C(F)(F)F)s1 [Example 3-39, 2-(4-chloro-1H-pyrrolo[2,3-b]pyridin-3-yl)-N-(5-(trifluoromethyl)thiazol-2-yl)acetamide] | 5.00 to 6.00 | >4 | < 5.00
C (2-3 fold increase) | – | D (10 μM≤DC50<1.0 μM) | Cc1cccn2c(CC(=O)Nc3ncc(C(F)(F)F)s3)cnc12 [Example 3-6, 2-(8-methylimidazo[1,2-a]pyridin-3-yl)-N-(5-(trifluoromethyl)thiazol-2-yl)acetamide] | ≥ 6.60 | 129.4 | 5.00 to 6.00
B (3-4 fold increase) | ≤ 0.1 µM | – | O=C(Cc1ccc2ccncc2c1)Nc1ncc(C(F)(F)F)s1 [Example 3-32, 2-(isoquinolin-7-yl)-N-(5-(trifluoromethyl)thiazol-2-yl)acetamide] | ≥ 6.60 | 115.9 | 5.00 to 6.00
C (2-3 fold increase) | ≤ 0.1 µM | – | O=C(Cc1cc2ccccc2s1)Nc1ncc(C(F)(F)F)s1 [Example 3-10, 2-(benzo[b]thiophen-2-yl)-N-(5-(trifluoromethyl)thiazol-2-yl)acetamide] | ≥ 6.60 | 23.6 | 5.00 to 6.00
D (1-2 fold increase) | > 10 µM | – | Cc1ccc2ncn(CC(=O)Nc3ncc(C(F)(F)F)s3)c2c1 [Example 3-15, 2-(6-methyl-1H-benzo[d]imidazol-1-yl)-N-(5-(trifluoromethyl)thiazol-2-yl)acetamide] | 5.00 to 6.00 | >4 | < 5.00
C (2-3 fold increase) | > 10 µM | – | O=C(Cc1cncc2ccccc12)Nc1ncc(C(F)(F)F)s1 [Example 3-34, 2-(isoquinolin-4-yl)-N-(5-(trifluoromethyl)thiazol-2-yl)acetamide] | 5.00 to 6.00 | >3 | < 5.00
C (2-3 fold increase) | – | D (10 μM≤DC50<1.0 μM) | O=C(Nc1ncc(C(F)(F)F)s1)C1CC(=O)N(c2ccc(Cl)cc2)C1 (centres unmarked) [Example 3-18, 1-(4-chlorophenyl)-5-oxo-N-(5-(trifluoromethyl)thiazol-2-yl)pyrrolidine-3-carboxamide] | ≥ 6.60 | >10 | < 5.00
B (3-4 fold increase) | > 10 µM | – | Cc1ccc(CN2CC(C(=O)Nc3ncc(C(F)(F)F)s3)CC2=O)cc1 (centres unmarked) [Example 3-29, 1-(4-methylbenzyl)-5-oxo-N-(5-(trifluoromethyl)thiazol-2-yl)pyrrolidine-3-carboxamide] | 6.00 to 6.30 | >16 | < 5.00
B (3-4 fold increase) | – | C (1.0 μM≤DC50<0.50 μM) | O=C(Nc1ncc(C(F)(F)F)s1)C1CC(=O)N(Cc2ccc(Cl)cc2)C1 (centres unmarked) [Example 3-28, 1-(4-chlorobenzyl)-5-oxo-N-(5-(trifluoromethyl)thiazol-2-yl)pyrrolidine-3-carboxamide] | ≥ 6.60 | 42.7 | 5.00 to 6.00
